# The source made the active and inactive calls. Cut-off read from the data, not from the text of the source, for most assays here: actives have a measured EC50 and inactives only a lower limit.
# Assays:
# [1] = cytotoxicity toward NIH3T3 fibroblasts, dose response, counter-screen, cell-based, ATP luminescence, mouse fibroblasts (AID 2010); format: functional;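 note: cells exposed to compound for about 90 hours before reading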
# [2] = inhibitors of intracellular T. cruzi replication, confirmation, NIH3T3 host cells, beta-gal luminescence (AID 2044); format: functional, cell-based;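 note: intracellular parasites grown in NIH/3T3 mouse fibroblasts as host cells; luminescent beta-galactosidase reporter signal from transgenic T. cruzi replicating inside host cells; inhibitors lower the luminescence signal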
# [3] = target: T1, Heat shock factor protein 1 (Mus musculus, UniProt P38532); test: inhibition of MG132-induced HSE-luciferase signal, confirmation, cell-based, NIH3T3, luminescence, dose retest (AID 2382); format: functional;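 note: NIH3T3 fibroblasts with HSF1-driven luciferase reporter stressed by proteasome inhibitor MG132; luminescence from HSF1-driven luciferase expression after 8 hours of MG132 stress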
# T1 sequence (P38532 whole entry): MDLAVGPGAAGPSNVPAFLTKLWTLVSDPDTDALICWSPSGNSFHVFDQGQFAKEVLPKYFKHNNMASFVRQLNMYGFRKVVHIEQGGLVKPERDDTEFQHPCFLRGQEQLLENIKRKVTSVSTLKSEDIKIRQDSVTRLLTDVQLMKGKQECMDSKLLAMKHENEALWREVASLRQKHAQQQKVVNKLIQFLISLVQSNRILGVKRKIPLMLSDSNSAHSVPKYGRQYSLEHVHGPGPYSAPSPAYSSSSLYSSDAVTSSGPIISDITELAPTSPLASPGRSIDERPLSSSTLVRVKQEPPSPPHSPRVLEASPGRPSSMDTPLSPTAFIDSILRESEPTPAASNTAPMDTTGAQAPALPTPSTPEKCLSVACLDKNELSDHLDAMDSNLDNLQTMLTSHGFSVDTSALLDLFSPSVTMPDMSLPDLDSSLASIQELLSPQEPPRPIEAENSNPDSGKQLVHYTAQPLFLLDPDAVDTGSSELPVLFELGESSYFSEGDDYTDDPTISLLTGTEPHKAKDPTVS
# [4] = target: T2, Cytochrome P450 1A2 (Homo sapiens, UniProt P05177);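 note: PubChem cytochrome P450 panel assay, CYP1A2 panel member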
# T2 sequence (P05177 whole entry): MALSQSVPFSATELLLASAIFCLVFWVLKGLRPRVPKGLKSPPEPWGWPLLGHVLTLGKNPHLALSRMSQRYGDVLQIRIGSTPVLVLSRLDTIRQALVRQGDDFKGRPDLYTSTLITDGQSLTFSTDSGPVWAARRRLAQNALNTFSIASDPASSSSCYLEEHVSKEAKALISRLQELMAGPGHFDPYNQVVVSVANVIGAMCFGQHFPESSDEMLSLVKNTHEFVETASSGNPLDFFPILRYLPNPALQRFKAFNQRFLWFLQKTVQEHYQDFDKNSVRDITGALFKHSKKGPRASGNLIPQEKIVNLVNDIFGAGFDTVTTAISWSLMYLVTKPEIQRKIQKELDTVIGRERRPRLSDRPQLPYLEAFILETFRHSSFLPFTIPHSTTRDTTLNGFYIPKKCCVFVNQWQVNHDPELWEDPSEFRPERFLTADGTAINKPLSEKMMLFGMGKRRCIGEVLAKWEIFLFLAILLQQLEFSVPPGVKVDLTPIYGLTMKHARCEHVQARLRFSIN
# [5] = target: Cytochrome P450 2D6 (Homo sapiens, UniProt P10635);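 note: CYP2D6 member of a cytochrome P450 panel assay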
# [6] = tested on: Streptococcus sp. 'group A'; test: growth inhibition of control SK(-) GAS strain, dose response, counter-screen for streptokinase expression inhibitor project, luminescence, kanamycin, BacTiterGlo, confirmation (AID 1900); format: functional, organism-based
# [7] = tested on: Streptococcus; test: Group A Streptococcus viability loss, dose response, counter-screen for streptokinase expression inhibitor project, luminescence, BacTiterGlo (AID 1915); format: functional, organism-based;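 note: potency for reduction of bacterial viability or growth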
# [8] = target: T3, Streptokinase A (Streptococcus pyogenes serotype M1, UniProt P10520); test: S. pyogenes streptokinase expression inhibitors, potency, dose response, plasminogen activation absorbance, OD405 (AID 1914); format: functional, Streptococcus pyogenes M1 GAS;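 note: secreted streptokinase activity via plasminogen activation per viability signal from cell pellet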
# T3 sequence (P10520 whole entry): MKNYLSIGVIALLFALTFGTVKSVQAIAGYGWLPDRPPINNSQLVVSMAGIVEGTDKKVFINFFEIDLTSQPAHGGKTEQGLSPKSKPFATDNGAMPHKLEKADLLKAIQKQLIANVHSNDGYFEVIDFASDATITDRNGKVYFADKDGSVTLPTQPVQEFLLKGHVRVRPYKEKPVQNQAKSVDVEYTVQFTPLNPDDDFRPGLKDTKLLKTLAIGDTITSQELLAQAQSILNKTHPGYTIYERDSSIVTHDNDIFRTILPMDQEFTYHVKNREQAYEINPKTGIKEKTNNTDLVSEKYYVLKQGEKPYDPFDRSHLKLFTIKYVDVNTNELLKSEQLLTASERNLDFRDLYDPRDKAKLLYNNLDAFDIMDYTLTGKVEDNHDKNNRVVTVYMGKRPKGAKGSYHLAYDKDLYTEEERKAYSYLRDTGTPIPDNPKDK
# [9] = target: Paired box protein Pax-8 (Homo sapiens, UniProt Q06710); test: inhibitors of PAX8-driven TPO luciferase reporter, dose response, RMG-I cells, cherry-pick (AID 687027); format: functional, cell-based;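 note: luciferase reporter driven by Pax8 target thyroperoxidase promoter measured by SteadyGlo luminescence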
# Chain of Paired box protein Pax-8 (Q06710 whole entry): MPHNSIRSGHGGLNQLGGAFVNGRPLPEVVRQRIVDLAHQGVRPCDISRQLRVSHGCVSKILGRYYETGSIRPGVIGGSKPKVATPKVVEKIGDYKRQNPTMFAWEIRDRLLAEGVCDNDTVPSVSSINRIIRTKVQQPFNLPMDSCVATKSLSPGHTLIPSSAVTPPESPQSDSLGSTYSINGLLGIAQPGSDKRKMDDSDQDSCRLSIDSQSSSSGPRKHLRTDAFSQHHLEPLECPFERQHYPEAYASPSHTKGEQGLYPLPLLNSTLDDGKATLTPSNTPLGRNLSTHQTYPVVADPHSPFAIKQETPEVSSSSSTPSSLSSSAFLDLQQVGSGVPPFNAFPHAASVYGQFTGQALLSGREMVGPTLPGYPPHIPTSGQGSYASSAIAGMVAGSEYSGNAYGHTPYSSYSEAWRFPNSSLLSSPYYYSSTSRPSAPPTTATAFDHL
# Chain of Cytochrome P450 2D6 (P10635 whole entry): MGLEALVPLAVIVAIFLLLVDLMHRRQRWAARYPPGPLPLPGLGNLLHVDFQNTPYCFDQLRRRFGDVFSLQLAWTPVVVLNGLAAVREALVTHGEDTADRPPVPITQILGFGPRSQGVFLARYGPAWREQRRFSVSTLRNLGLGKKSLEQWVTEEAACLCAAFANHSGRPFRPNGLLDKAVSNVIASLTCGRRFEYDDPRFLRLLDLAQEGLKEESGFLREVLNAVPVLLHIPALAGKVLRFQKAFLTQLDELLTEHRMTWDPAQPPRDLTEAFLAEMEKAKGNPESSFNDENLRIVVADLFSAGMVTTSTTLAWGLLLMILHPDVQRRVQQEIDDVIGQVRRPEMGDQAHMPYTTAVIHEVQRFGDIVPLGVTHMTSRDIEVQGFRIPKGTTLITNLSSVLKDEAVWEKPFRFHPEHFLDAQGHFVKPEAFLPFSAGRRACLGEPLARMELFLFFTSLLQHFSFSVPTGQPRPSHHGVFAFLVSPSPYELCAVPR
compound,measurement,setting,value
CCCn1c(=O)n(C)c(=O)c2c(SCC(=O)NC34CC5CC(CC(C5)C3)C4)nc(CC(C)C)nc21,EC50,[1],> 60 µM (not active)
same,EC50,[2],> 60 µM (not active)
Cc1ccc2oc(=O)cc(CN3CCN(C/C=C/c4ccccc4)CC3)c2c1,EC50,[1],> 60 µM (not active)
same,EC50,[2],0.293 µM (active)
O=C(CSc1nc(Nc2ccccc2)nc(N2CCOCC2)n1)Nc1ccc([N+](=O)[O-])cc1,EC50,[1],> 60 µM (not active)
same,EC50,[2],2.18 µM (active)
Cc1noc(C)c1COc1ccc(C(=O)OCC(=O)Nc2c(C)n(C)n(-c3ccccc3)c2=O)cc1,EC50,[3],> 195 µM (not active)
O=S(=O)(c1ccc(Cl)s1)N1CCc2ccccc2C1,AC50,[4],25.1 µM (inconclusive)
same,AC50,[5],31.6 µM (inconclusive)
CCCCCCn1c(=O)c(C(=O)N/N=C/c2cccc(F)c2)c(O)c2ccccc21,EC50,[6],11.6 µM (active)
same,EC50,[7],16.1 µM (active)
Cc1nc2cc(-c3ccccc3)nn2c(C)c1CCC(=O)NC(C)c1ccc2c(c1)OCCO2 (stereo not drawn),EC50,[3],> 195 µM (not active)
COc1ccc(NC(=O)c2ccc([N+](=O)[O-])cc2[N+](=O)[O-])c(OC)c1,EC50,[1],> 30 µM (not active)
same,EC50,[2],1.16 µM (active)
CCN1CCN(CCOc2ccc(Cl)cc2)CC1,EC50,[1],> 30 µM (not active)
same,EC50,[2],0.176 µM (active)
O=C1c2ccccc2S(=O)(=O)N1CCCCN1CCN(c2ncccn2)CC1 [IPSAPIRONE],AC50,[4],31.6 µM (inconclusive)
same,AC50,[5],20 µM (inconclusive)
O=C(Nc1ccc(Br)cc1)C1CCC(=O)N1Cc1ccccc1Cl (stereo not drawn),AC50,[4],14.1 µM (inconclusive)
CCOc1ccc(N(CC(=O)NCc2ccc(C)cc2)S(=O)(=O)c2c(C)nc(O)nc2O)cc1,EC50,[8],> 150 µM (not active)
same,EC50,[6],> 150 µM (not active)
same,EC50,[7],> 150 µM (not active)
CC1CCCN(CCCOc2ccc(Cl)cc2Br)C1 (stereo not drawn),EC50,[3],> 195 µM (not active)
O=C(O)c1cccc(NC(=S)NC(=O)c2ccc3ccccc3c2)c1,EC50,[3],20.6 µM (active)
Cc1ccc(NC(=O)/C(=C\c2ccc3c(c2)OCO3)NC(=O)c2ccco2)cc1,AC50,[4],11.2 µM (inconclusive)
same,AC50,[5],15.8 µM (inconclusive)
O=C1NC(=O)N(Cc2ccccc2)C(=O)/C1=C/NCCN1CCNCC1,EC50,[3],> 195 µM (not active)
O=C(Nc1ccc(S(=O)(=O)N2CCc3ccccc32)cc1)c1ccc2c(c1)OCO2,EC50,[1],> 60 µM (not active)
same,EC50,[2],3.4 µM (active)
O=C(c1cnccn1)N1CCC2(CCCN(Cc3ccccc3)C2)CC1,AC50,[5],7.94 µM (inconclusive)
O=S(=O)(NCc1ccccn1)c1ccc(F)cc1,EC50,[3],> 195 µM (not active)
Cc1noc(C)c1NC(=O)Nc1cccc2c1O[C@H](CN(C)Cc1ccc(C(F)(F)F)cc1)[C@H](C)CN([C@@H](C)CO)C2=O,AC50,[9],27.5 µM (active)
Cc1nc2cnc(Oc3ccccc3)nc2n(Cc2cccs2)c1=O,AC50,[5],31.6 µM (inconclusive)
COc1ccccc1-c1cc(NCc2cccc(C)c2)ncn1,AC50,[5],20 µM (inconclusive)
C[C@@H]1CCCCO[C@@H](CN(C)S(=O)(=O)c2ccc(Cl)cc2)[C@H](C)CN([C@@H](C)CO)C(=O)c2cc(NS(=O)(=O)c3ccc(Cl)cc3)ccc2O1,AC50,[9],2.78 µM (active)
O=C(N/N=C/c1ccc(F)cc1)c1ccc(OCc2ccccc2)cc1,EC50,[3],> 195 µM (not active)
COc1cccc(-n2ccnc2SCC(=O)Nc2ccccc2F)c1,EC50,[3],> 195 µM (not active)
O=C(O)CCN1C(=S)CSC1=S,AC50,[4],5.01 µM (inconclusive)

# Source: ChEMBL document CHEMBL1201862, “PubChem BioAssay data set” (2004)
